For one data set, the system named is A549. Briefly: Antitumor activity against human A549 cells assessed as inhibition of cell growth by MTT assay. In kind it is functional, cell-based.
A further data set deals with NCI-H1299. Kind of data set: Antitumor activity against human NCI-H1299 cells assessed as inhibition of cell growth by MTT assay. Format: functional, cell-based. On the technique in general: Formazan colour is commonly taken as a measure of viable cells.
The next data set concerns NCI-H460. Briefly: Antitumor activity against human NCI-H460 cells assessed as inhibition of cell growth by MTT assay. Format: functional, cell-based.
For the next data set, the system named is HCT-116. Kind of data set: Antitumor activity against human HCT-116 cells assessed as inhibition of cell growth by MTT assay. In kind it is functional, cell-based.
The test system of another data set is Hep 3B2. Briefly: Antitumor activity against human Hep3B cells assessed as inhibition of cell growth by MTT assay. Format: functional, cell-based.
The subject of a further data set is MDA-MB-231. Briefly: Antitumor activity against human MDA-MB-231 cells assessed as inhibition of cell growth by MTT assay. In kind it is functional, cell-based.
Data set [1] in a line: Cytotoxicity against human RPE cells assessed as reduction in cell viability at 10 uM relative to control. Format: toxicity, cell-based.
The test system of data set [2] is HT-22. Briefly: Cytotoxicity against mouse HT-22 cells assessed as reduction in cell viability at 10 uM relative to control. Format: toxicity, cell-based. The note with it: ht-22, 10 µM.
Data set [3] can be described thus: Cytotoxicity against human RPE cells assessed as reduction in cell viability at 50 uM relative to control. In kind it is toxicity, cell-based.
Data set [4] deals with HT-22. Kind of data set: Cytotoxicity against mouse HT-22 cells assessed as reduction in cell viability at 50 uM relative to control. In kind it is toxicity, cell-based. The settings on record: ht-22, 50 µM.

Here are results for 24 compounds from ChEMBL document CHEMBL5321248, “Syntheses and antitumor activities of neorautenol and shinpterocarpin analogs” (Bioorg Med Chem Lett, 2023).

The term IC50 denotes the concentration that inhibits the measured activity by half.

For `CC1(C)C=Cc2cc3c(cc2O1)OC[C@H]1c2ccc(OCCN4CCNCC4)cc2O[C@@H]31`, the IC50 in the data set on A549 was 6.7 µM; in the data set on NCI-H1299, 8.3 µM; in the data set on NCI-H460, 4.3 µM; with HCT-116, 4.4 µM; in the data set on Hep 3B2 it was above 10 µM; in the data set with MDA-MB-231 it was 6.7 µM. In addition, the Activity is above 70% in data set [1], above 70% in the data set with HT-22 [2], “Non-Toxic” in data set [3] and “Toxic” in the data set with HT-22 [4].

With `CC1(C)C=Cc2c(ccc3c2OC[C@H]2c4ccc(N)cc4O[C@@H]32)O1`, the half-maximal inhibitory concentration (IC50) in the data set with A549, in the data set with NCI-H1299, in the data set with NCI-H460, with HCT-116, in the data set with Hep 3B2 and with MDA-MB-231 was above 10 µM throughout.

For `COc1ccc2c(c1)O[C@H]1c3cc4c(cc3OC[C@@H]21)OC(C)(C)C=C4`, the half-maximal inhibitory concentration (IC50) in the data set with A549, in the data set on NCI-H1299, with NCI-H460, in the data set with HCT-116, in the data set with Hep 3B2 and in the data set with MDA-MB-231 was above 10 µM in each case.

As for `CC1(C)C=Cc2c(ccc3c2OC[C@H]2c4ccc(O)cc4O[C@@H]32)O1` [SHINPTEROCARPIN], the IC50 in the data set with A549 was found to be 21.6 µM; with NCI-H1299, 18.3 µM; in the data set with NCI-H460, 28 µM; in the data set with HCT-116 it was 22.4 µM; with Hep 3B2, 30.4 µM; in the data set on MDA-MB-231, 52.8 µM.

In the case of `CC1(C)C=Cc2c(ccc3c2OC[C@H]2c4ccc(OCCN5CCOCC5)cc4O[C@@H]32)O1`, the IC50 in the data set with A549, in the data set on NCI-H1299, with NCI-H460, in the data set with HCT-116, with Hep 3B2 and in the data set on MDA-MB-231 was above 10 µM each time.

Regarding `C#CC(C)(C)Oc1ccc2c(c1)OC[C@H]1c3ccc(O)cc3O[C@@H]21`, the IC50 in the data set on A549, in the data set with NCI-H1299, in the data set on NCI-H460, with HCT-116, in the data set with Hep 3B2 and in the data set with MDA-MB-231 was above 10 µM each time.

As for `COc1ccc2c(c1)OC[C@H]1c3ccc(O)cc3O[C@@H]21`, the IC50 with A549, with NCI-H1299, with NCI-H460, in the data set with HCT-116, with Hep 3B2 and in the data set on MDA-MB-231 was above 10 µM throughout.

As to `CC1(C)C=Cc2cc3c(cc2O1)OC[C@H]1c2ccc(N)cc2O[C@@H]31`, the IC50 in the data set with A549, in the data set with NCI-H1299, with NCI-H460, with HCT-116, in the data set on Hep 3B2 and with MDA-MB-231 was above 10 µM in each case.

Regarding `CC1(C)C=Cc2c(ccc3c2OC[C@H]2c4ccccc4O[C@@H]32)O1`, the IC50 in the data set with A549, in the data set on NCI-H1299, in the data set on NCI-H460, in the data set on HCT-116, in the data set with Hep 3B2 and in the data set with MDA-MB-231 was above 10 µM each time.

On to `CN1CCN(CCOc2ccc3c(c2)O[C@H]2c4ccc5c(c4OC[C@@H]32)C=CC(C)(C)O5)CC1`, for which the IC50 in the data set with A549 is 6.5 µM; in the data set with NCI-H1299, 6.6 µM; in the data set on NCI-H460, 4.2 µM; with HCT-116, 5.2 µM; with Hep 3B2 it was above 10 µM; in the data set with MDA-MB-231, above 10 µM. Besides, the Activity is listed as above 70% in [1], above 70% in the data set on HT-22 [2], “Non-Toxic” in data set [3] and “Toxic” in the data set on HT-22 [4].

With `CC1(C)C=Cc2cc3c(cc2O1)OC[C@H]1c2ccc(O)cc2O[C@@H]31` [NEORAUTENOL], the IC50 with A549 worked out at 24.6 µM; in the data set with NCI-H1299, 15 µM; in the data set on NCI-H460, 24.2 µM; in the data set with HCT-116 it was 17.4 µM; in the data set on Hep 3B2, 28.5 µM; in the data set on MDA-MB-231, 53.1 µM.

On to `CC1(C)C=Cc2c(ccc3c2OC[C@H]2c4ccc([N+](=O)[O-])cc4O[C@@H]32)O1`, for which the IC50 with A549, in the data set on NCI-H1299, in the data set with NCI-H460, in the data set with HCT-116, with Hep 3B2 and in the data set on MDA-MB-231 was above 10 µM each time.

Take `CC1(C)C=Cc2cc3c(cc2O1)OC[C@H]1c2ccc([N+](=O)[O-])cc2O[C@@H]31`: the IC50 with A549, in the data set with NCI-H1299, in the data set on NCI-H460, in the data set with HCT-116, in the data set with Hep 3B2 and in the data set with MDA-MB-231 was above 10 µM each time.

In the case of `COCCOc1ccc2c(c1)O[C@H]1c3ccc4c(c3OC[C@@H]21)C=CC(C)(C)O4`, the IC50 in the data set on A549, with NCI-H1299, in the data set with NCI-H460, in the data set on HCT-116, in the data set on Hep 3B2 and in the data set on MDA-MB-231 was above 10 µM in each case.

For the compound `CC1(C)C=Cc2cc3c(cc2O1)OC[C@H]1c2ccccc2O[C@@H]31`, the half-inhibitory concentration (IC50) in the data set with A549, with NCI-H1299, with NCI-H460, in the data set with HCT-116, in the data set on Hep 3B2 and with MDA-MB-231 was above 10 µM each time.

As for `CC(=O)Nc1ccc2c(c1)O[C@H]1c3ccc4c(c3OC[C@@H]21)C=CC(C)(C)O4`, the IC50 in the data set with A549, with NCI-H1299, in the data set with NCI-H460, in the data set on HCT-116, with Hep 3B2 and with MDA-MB-231 was above 10 µM in each case.

For `COCCOc1ccc2c(c1)O[C@H]1c3cc4c(cc3OC[C@@H]21)OC(C)(C)C=C4`, the IC50 in the data set with A549, with NCI-H1299, in the data set with NCI-H460, in the data set on HCT-116, in the data set on Hep 3B2 and with MDA-MB-231 was above 10 µM in each case.

On to `CC1(C)C=Cc2c(ccc3c2OC[C@H]2c4ccc(OCCN5CCNCC5)cc4O[C@@H]32)O1`, for which the half-maximal inhibitory concentration (IC50) in the data set on A549, with NCI-H1299, with NCI-H460, in the data set on HCT-116, in the data set on Hep 3B2 and in the data set with MDA-MB-231 was above 10 µM each time.

Consider `CC1(C)C=Cc2c(ccc3c2OC[C@H]2c4ccc(NS(C)(=O)=O)cc4O[C@@H]32)O1`, for which the IC50 in the data set with A549, in the data set with NCI-H1299, in the data set on NCI-H460, in the data set on HCT-116, with Hep 3B2 and in the data set with MDA-MB-231 was above 10 µM in each case.

As to `CC1(C)C=Cc2cc3c(cc2O1)OC[C@H]1c2ccc(OCCN4CCOCC4)cc2O[C@@H]31`, the concentration for half-maximal inhibition (IC50) in the data set on A549, in the data set on NCI-H1299, in the data set with NCI-H460, in the data set on HCT-116, with Hep 3B2 and in the data set on MDA-MB-231 was above 10 µM each time.

For `COc1ccc2c(c1)O[C@H]1c3ccc4c(c3OC[C@@H]21)C=CC(C)(C)O4`, the IC50 with A549, in the data set with NCI-H1299, in the data set with NCI-H460, in the data set with HCT-116, in the data set with Hep 3B2 and in the data set with MDA-MB-231 was above 10 µM throughout.

Turning to `CN(C)CCOc1ccc2c(c1)O[C@H]1c3ccc4c(c3OC[C@@H]21)C=CC(C)(C)O4`, the IC50 with A549 was 8.1 µM; in the data set on NCI-H1299, 9.6 µM; in the data set with NCI-H460, 5.7 µM; with HCT-116, 7 µM; in the data set with Hep 3B2 it was above 10 µM; in the data set on MDA-MB-231, above 10 µM. Further, the Activity in [1] is given as above 70%; in the data set with HT-22 [2] it was above 70%; in data set [3], “Non-Toxic”; in the data set on HT-22 [4], “Toxic”.

With `CC(=O)Nc1ccc2c(c1)O[C@H]1c3cc4c(cc3OC[C@@H]21)OC(C)(C)C=C4`, the half-maximal inhibitory concentration (IC50) with A549, in the data set with NCI-H1299, in the data set on NCI-H460, in the data set with HCT-116, in the data set on Hep 3B2 and with MDA-MB-231 was above 10 µM throughout.

Consider `CC1(C)C=Cc2cc3c(cc2O1)OC[C@H]1c2ccc(NS(C)(=O)=O)cc2O[C@@H]31`, for which the concentration for half-maximal inhibition (IC50) in the data set on A549, in the data set on NCI-H1299, with NCI-H460, in the data set on HCT-116, in the data set with Hep 3B2 and in the data set on MDA-MB-231 was above 10 µM in each case.
